The subject of assay [1] is NQO1 mRNA in BEAS-2B cells. As to the kind of experiment: Beas2B NQO1 mRNA cell based assay. Set-up: species or system human. As to conditions: 24 h compound treatment, increase in NQO1 mRNA vs vehicle (0.1% DMSO), read-out: EC50. The gist of the method: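 Relative NQO1 transcript level derived by ΔΔCT with human β-actin as internal control, using direct-lysate one-step RT-qPCR. Cells were BEAS-2B, plated overnight then treated with compound for 24 h.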

Assay [2] addresses T1, human KEAP1 (N-term, residues 321-609) (Homo sapiens, UniProt Q14145).
The target in assay [3] is T1, human KEAP1 (N-term, residues 321-609). Description: biochemical.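 Note: fluorescence polarization competition assay of Kelch domain binding to NRF2, 12-point 1:3 dilution series from 10 µM, read after 1 h at room temperature, floor 10 nM.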

Like-named read-outs stand apart in the source and are kept apart here.

T1 sequence (Q14145 321-609): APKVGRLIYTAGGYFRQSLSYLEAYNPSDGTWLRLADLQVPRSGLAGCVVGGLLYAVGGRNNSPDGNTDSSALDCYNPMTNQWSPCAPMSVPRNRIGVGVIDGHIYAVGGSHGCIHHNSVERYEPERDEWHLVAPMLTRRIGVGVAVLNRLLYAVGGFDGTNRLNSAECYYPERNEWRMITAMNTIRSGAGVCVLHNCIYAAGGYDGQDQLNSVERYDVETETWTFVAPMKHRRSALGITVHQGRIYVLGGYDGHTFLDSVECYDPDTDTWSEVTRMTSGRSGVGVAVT

One may read the EC50 as the concentration that produces a half-maximal response. What is called IC50 is the midpoint of a concentration-inhibition curve. Consider “(1S,2R)-2-((S)-8- ((2,5-bis (difluoromethyl)-2H- 1,2,3-triazol-4-yl) methoxy)-5-chloro-1 ((2-oxopyrrolidin-1- yl)methyl)-1,2,3,4- tetrahydroisoquinoline- 2-carbonyl)-1- methylcyclohexane-1- carboxylic acid [Example 139]”, for which the EC50 in assay [1] was found to be 140 nM. Besides, half-maximal inhibition in assay [2] (IC50) required 5.7 nM.

Take “(1S,2R)-2-((S)- 8-((1,5-bis (difluoromethyl)- 1H-1,2,3-triazol-4-yl) methoxy)-5-chloro-1- ((2-oxopyrrolidin-1- yl)methyl)-1,2,3,4- tetrahydroisoquinoline- 2-carbonyl)-1- methylcyclohexane- 1-carboxylic acid [Example 193]”: in assay [1], the EC50 was 1.8 nM. This compound showed an IC50 in assay [2] of 7.7 nM.

Turning to `Cc1cc(COc2ccc(Cl)c3c2[C@@H](CN2Cc4ccccc4C2=O)N(C(=O)[C@@H]2CCCC[C@@H]2C(=O)O)CC3)no1` [Example 49, (1S,2R)-2-((S)-5-chloro-8-((5-methylisoxazol-3-yl)methoxy)-1-((1-oxoisoindolin-2-yl)methyl)-1,2,3,4-tetrahydroisoquinoline-2-carbonyl)cyclohexane-1-carboxylic acid], the EC50 in assay [1] (Homo sapiens, BEAS-2B, 24 h) was found to be 19 nM. Further, the IC50 in assay [3] stood at 11 nM.

As to `Cn1nnc(COc2ccc(Cl)c3c2[C@@H](CN2CCCC2=O)N(C(=O)[C@@H]2CCCC[C@]2(C)C(=O)O)CC3)c1C1CC1` [Example 129, (1S,2R)-2-((S)-5-chloro-8-((5-cyclopropyl-1-methyl-1H-1,2,3-triazol-4-yl)methoxy)-1-((2-oxopyrrolidin-1-yl)methyl)-1,2,3,4-tetrahydroisoquinoline-2-carbonyl)-1-methylcyclohexane-1-carboxylic acid], in assay [1] (Homo sapiens, BEAS-2B, 24 h), the EC50 was 0.95 nM. For the same compound, the IC50 in assay [3] stood at 5.5 nM.

Turning to `Cn1nnc(COc2c(F)cc(Cl)c3c2[C@@H](CN2CC4(CC4)CC2=O)N(C(=O)[C@@H]2CCCC[C@]2(C)C(=O)O)CC3)c1C(F)F` [Example 203, (1S,2R)-2-((S)-5-chloro-8-((5-(difluoromethyl)-1-methyl-1H-1,2,3-triazol-4-yl)methoxy)-7-fluoro-1-((6-oxo-5-azaspiro[2.4]heptan-5-yl)methyl)-1,2,3,4-tetrahydroisoquinoline-2-carbonyl)-1-methylcyclohexane-1-carboxylic acid], the EC50 in assay [1] (Homo sapiens, BEAS-2B, 24 h) came to 0.4 nM. Moreover, the IC50 in assay [3] came out at 6.2 nM.

With `C[C@@H]1CCN(C[C@@H]2c3c(OCc4nnn(C)c4C(F)F)ccc(Cl)c3CCN2C(=O)[C@@H]2CCC[C@]2(C)C(=O)O)C1=O` [Example 113, (1S,2R)-2-((1S)-5-Chloro-8-((5-(difluoromethyl)-1-methyl-1H-1,2,3-triazol-4-yl)methoxy)-1-(((R)-3-methyl-2-oxopyrrolidin-1-yl)methyl)-1,2,3,4-tetrahydroisoquinoline-2-carbonyl)-1-methylcyclopentane-1-carboxylic acid], the EC50 in assay [1] (Homo sapiens, BEAS-2B, 24 h) stood at 240 nM. The IC50 in assay [3] is 10 nM.

On to `Cn1nnc(COc2ccc(Cl)c3c2[C@@H](CN2Cc4ccccc4C2=O)N(C(=O)[C@@H]2CCCC[C@@H]2C(=O)O)CC3)c1C(F)F` [Example 53, (1S,2R)-2-((S)-5-chloro-8-((5-(difluoromethyl)-1-methyl-1H-1,2,3-triazol-4-yl)methoxy)-1-((1-oxoisoindolin-2-yl)methyl)-1,2,3,4-tetrahydroisoquinoline-2-carbonyl)cyclohexane-1-carboxylic acid], for which the EC50 in assay [1] (Homo sapiens, BEAS-2B, 24 h) stood at 1.4 nM. It took 6.2 nM to reach half-maximal inhibition in assay [3] (IC50).

As for `Cc1nc(COc2ccc(Br)c3c2[C@@H](CN2Cc4ccccc4C2=O)N(C(=O)[C@@H]2CCCC[C@@H]2C(=O)O)CC3)no1` [Example 24, (1S,2R)-2-((S)-5-Bromo-8-((5-methyl-1,2,4-oxadiazol-3-yl)methoxy)-1-((1-oxoisoindolin-2-yl)methyl)-1,2,3,4-tetrahydroisoquinoline-2-carbonyl)cyclohexane-1-carboxylic acid], the EC50 in assay [1] (Homo sapiens, BEAS-2B, 24 h) was 41 nM. The same compound showed an IC50 in assay [3] of 9.1 nM.

`CC(=O)N1CC[C@H](Oc2c(Cl)cc(Cl)c3c2[C@@H](CN2C(=O)c4ccccc4C2=O)N(C(=O)[C@@H]2CCCC[C@@H]2C(=O)O)CC3)C1` [Example 13, (1S,2R)-2-((S)-8-(((S)-1-Acetylpyrrolidin-3-yl)oxy)-5,7-dichloro-1-((1,3-dioxoisoindolin-2-yl)methyl)-1,2,3,4-tetrahydroisoquinoline-2-carbonyl)cyclohexane-1-carboxylic acid]: the EC50 in assay [1] (Homo sapiens, BEAS-2B, 24 h) was determined as 530 nM. In addition, the midpoint of inhibition in assay [3], the IC50, lay at 8.5 nM.

Consider `Cc1c(COc2ccc(Cl)c3c2[C@@H](CN2CC4(CC4)CC2=O)N(C(=O)[C@@H]2CCCC[C@]2(C)C(=O)O)CC3)nnn1C` [Example 156, (1S,2R)-2-((S)-5-chloro-8-((1,5-dimethyl-1H-1,2,3-triazol-4-yl)methoxy)-1-((6-oxo-5-azaspiro[2.4]heptan-5-yl)methyl)-1,2,3,4-tetrahydroisoquinoline-2-carbonyl)-1-methylcyclohexane-1-carboxylic acid], for which the EC50 in assay [1] (Homo sapiens, BEAS-2B, 24 h) turned out to be 0.29 nM. In assay [3], this compound had an IC50 of 5.1 nM.

For the compound `CCn1ccc(COc2ccc(Cl)c3c2[C@@H](CN2Cc4ccccc4C2=O)N(C(=O)[C@@H]2CCCC[C@@H]2C(=O)O)CC3)n1` [Example 55, (1S,2R)-2-((S)-5-chloro-8-((1-ethyl-1H-pyrazol-3-yl)methoxy)-1-((1-oxoisoindolin-2-yl)methyl)-1,2,3,4-tetrahydroisoquinoline-2-carbonyl)cyclohexane-1-carboxylic acid], in assay [1] (Homo sapiens, BEAS-2B, 24 h), the EC50 was determined as 73 nM. Also, it took 5.6 nM to reach half-maximal inhibition in assay [3] (IC50).

`CC(C)n1cc(COc2ccc(C(F)(F)F)c3c2[C@@H](CN2Cc4ccccc4C2=O)N(C(=O)[C@@H]2CCCC[C@@H]2C(=O)O)CC3)nn1` [Example 62, (1S,2R)-2-((S)-8-((1-isopropyl-1H-1,2,3-triazol-4-yl)methoxy)-1-((1-oxoisoindolin-2-yl)methyl)-5-(trifluoromethyl)-1,2,3,4-tetrahydroisoquinoline-2-carbonyl)cyclohexane-1-carboxylic acid]: the EC50 in assay [1] (Homo sapiens, BEAS-2B, 24 h) is 120 nM. Inhibition in assay [3] was half-maximal at 14 nM (IC50).

For `CC[C@]1(C(=O)O)CCC[C@H]1C(=O)N1CCc2c(Cl)ccc(OCc3nnn(C)c3C(F)F)c2[C@H]1CN1CCCC1=O` [Example 118, (1S,2R)-2-((S)-5-chloro-8-((5-(difluoromethyl)-1-methyl-1H-1,2,3-triazol-4-yl)methoxy)-1-((2-oxopyrrolidin-1-yl)methyl)-1,2,3,4-tetrahydroisoquinoline-2-carbonyl)-1-ethylcyclopentane-1-carboxylic acid], the EC50 in assay [1] (Homo sapiens, BEAS-2B, 24 h) was 59 nM. The compound further returned an IC50 in assay [3] of 8.4 nM.

For `Cc1cnoc1COc1ccc(Cl)c2c1[C@@H](CN1CCCC1=O)N(C(=O)[C@@H]1CCCC[C@]1(C)C(=O)O)CC2` [Example 126, (1S,2R)-2-((S)-5-chloro-8-((4-methylisoxazol-5-yl)methoxy)-1-((2-oxopyrrolidin-1-yl)methyl)-1,2,3,4-tetrahydroisoquinoline-2-carbonyl)-1-methylcyclohexane-1-carboxylic acid], the EC50 in assay [1] (Homo sapiens, BEAS-2B, 24 h) is 32 nM. Moreover, in assay [3], the IC50 was found to be 5.6 nM.

As for `Cn1nnc(COc2ccc(Cl)c3c2[C@@H](CN2CC4(CC4)CC2=O)N(C(=O)[C@@H]2C[C@@H]4C[C@@H]4C[C@]2(C)C(=O)O)CC3)c1C(F)F` [Example 207, (1R,3S,4R,6S)-4-((S)-5-chloro-8-((5-(difluoromethyl)-1-methyl-1H-1,2,3-triazol-4-yl)methoxy)-1-((6-oxo-5-azaspiro[2.4]heptan-5-yl)methyl)-1,2,3,4-tetrahydroisoquinoline-2-carbonyl)-3-methylbicyclo[4.1.0]heptane-3-carboxylic acid], the EC50 in assay [1] (Homo sapiens, BEAS-2B, 24 h) turned out to be 0.89 nM. The compound also displayed an IC50 in assay [3] of 5.1 nM.

Values taken from patent US12098148B2, “Therapeutic compounds” (C4X Discovery Limited, priority 2018, dated 2024).
